Experimental data reported in the CheMixHub viscosity set.

Assay: xn = mol fraction of the nth substance listed

COc1ccccc1 + CCCCCCCO
viscosity [mPa·s]
Details	303 K	303.15 K	313 K	313.15 K	323 K	323.15 K
100 kPa, x1 = 0.126	3.393	–	2.351	–	1.972	–
100 kPa, x1 = 0.245	2.343	–	1.746	–	1.46	–
100 kPa, x1 = 0.357	1.759	–	1.349	–	1.173	–
100 kPa, x1 = 0.464	1.364	–	1.124	–	0.9642	–
100 kPa, x1 = 0.565	1.172	–	0.9672	–	0.849	–
100 kPa, x1 = 0.66	1.068	–	0.8719	–	0.7334	–
100 kPa, x1 = 0.752	0.9884	–	0.8171	–	0.684	–
100 kPa, x1 = 0.838	0.9459	–	0.7783	–	0.6326	–
100 kPa, x1 = 0.921	0.9418	–	0.7546	–	0.6041	–
101.33 kPa, x1 = 0.1002	–	3.922	–	2.94	–	2.245
101.33 kPa, x1 = 0.1999	–	3.023	–	2.359	–	1.812
101.33 kPa, x1 = 0.3	–	2.457	–	1.932	–	1.554
101.33 kPa, x1 = 0.4003	–	1.996	–	1.611	–	1.292
101.33 kPa, x1 = 0.5	–	1.701	–	1.373	–	1.161
101.33 kPa, x1 = 0.6	–	1.448	–	1.212	–	0.998
101.33 kPa, x1 = 0.7002	–	1.213	–	1.01	–	0.864
101.33 kPa, x1 = 0.8002	–	1.072	–	0.892	–	0.768
101.33 kPa, x1 = 0.9001	–	0.969	–	0.824	–	0.714

CC1COC(=O)O1 (centres undefined) + CCCCCCO
Details	viscosity [mPa·s]
298 K, 101.3 kPa, x1 = 0.0204	4.601
298 K, 101.3 kPa, x1 = 0.0408	4.607
298 K, 101.3 kPa, x1 = 0.0606	4.612
298 K, 101.3 kPa, x1 = 0.0808	4.612
298 K, 101.3 kPa, x1 = 0.1003	4.609
298 K, 101.3 kPa, x1 = 0.2005	4.548
298 K, 101.3 kPa, x1 = 0.3005	4.406
298 K, 101.3 kPa, x1 = 0.4004	4.191
298 K, 101.3 kPa, x1 = 0.5001	3.912
298 K, 101.3 kPa, x1 = 0.6002	3.586
298 K, 101.3 kPa, x1 = 0.7001	3.228
298 K, 101.3 kPa, x1 = 0.8001	2.854
298 K, 101.3 kPa, x1 = 0.9	2.536
298.15 K, 101 kPa, x1 = 0.0254	4.523
298.15 K, 101 kPa, x1 = 0.0901	4.346
298.15 K, 101 kPa, x1 = 0.1722	4.13
298.15 K, 101 kPa, x1 = 0.2303	3.984
298.15 K, 101 kPa, x1 = 0.3087	3.796
298.15 K, 101 kPa, x1 = 0.3846	3.621
298.15 K, 101 kPa, x1 = 0.4521	3.473
298.15 K, 101 kPa, x1 = 0.5332	3.303
298.15 K, 101 kPa, x1 = 0.6124	3.145
298.15 K, 101 kPa, x1 = 0.7005	2.978
298.15 K, 101 kPa, x1 = 0.7883	2.821
298.15 K, 101 kPa, x1 = 0.8455	2.722
298.15 K, 101 kPa, x1 = 0.9112	2.614
298.15 K, 101 kPa, x1 = 0.977	2.509

COc1ccccc1 + CCCCCCO
viscosity [mPa·s], 101.33 kPa
Details	x1 = 0.0998	x1 = 0.2	x1 = 0.3002	x1 = 0.4	x1 = 0.5	x1 = 0.6002	x1 = 0.6997	x1 = 0.8001	x1 = 0.9
303.15 K	3.055	2.413	1.969	1.661	1.423	1.27	1.097	1.009	0.927
313.15 K	2.325	1.886	1.569	1.334	1.166	1.049	0.932	0.858	0.798
323.15 K	1.798	1.481	1.248	1.107	0.966	0.878	0.786	0.744	0.699

CC1COC(=O)O1 (centres undefined) + CCCCCO
298.15 K, 101 kPa
Details	viscosity [mPa·s]
x1 = 0.0218	3.297
x1 = 0.0861	3.235
x1 = 0.1654	3.161
x1 = 0.2433	3.094
x1 = 0.3101	3.029
x1 = 0.374	2.973
x1 = 0.4207	2.933
x1 = 0.5003	2.865
x1 = 0.5691	2.808
x1 = 0.6326	2.756
x1 = 0.7214	2.685
x1 = 0.8072	2.618
x1 = 0.8655	2.574
x1 = 0.9573	2.505

COc1ccccc1 + CCCCCO
viscosity [mPa·s], 101.33 kPa
Details	x1 = 0.1	x1 = 0.1998	x1 = 0.3002	x1 = 0.4001	x1 = 0.5	x1 = 0.6002	x1 = 0.6998	x1 = 0.6999	x1 = 0.8001	x1 = 0.9
303.15 K	2.369	1.911	1.658	1.447	1.26	1.109	–	1.046	0.952	0.914
313.15 K	1.841	1.522	1.326	1.173	1.022	0.929	–	0.862	0.814	0.791
323.15 K	1.403	1.172	1.062	0.953	0.853	0.792	0.745	–	0.708	0.696
